According to US12458643B2, “Antidepressant/anxiolytic drug in which PAC1 receptor antagonist is used” (KAGOSHIMA UNIVERSITY, priority 2020, dated 2025):

Test system: chronic social defeat stress mice
Assay: Chronic social defeat stress, social preference or avoidance test (SPAT)
Assay type: in vivo, mouse
Settings: for sustained effect on social behavioral abnormality (social interaction ratio) / effect on social behavioral abnormality (social interaction ratio): Example 18; for sustained effect on social behavioral abnormality (social interaction ratio): 7, 14, 28 days after single i.p. dose (PA-915 30 mg/kg, ketamine 20 mg/kg), fluoxetine 20 mg/kg i.p. 14-day consecutive administration; for effect on social behavioral abnormality (social interaction ratio): single i.p. dose (PA-915 30 mg/kg, ketamine 20 mg/kg, fluoxetine 20 mg/kg), 60 minutes later (Day 12); for effect on chronic social defeat stress-induced social behavioral abnormality (SPAT): 30 mg/kg i.p. once daily for 7 consecutive days, SPAT 30 min after final administration (Day 18)
Text: When male C57BL/6N mice (8 to 12 weeks old) are allowed to coexist with ICR mice having a large physical size, the male C57BL/6N mice run about in the beginning in order to avoid attack by the ICR mice, but eventually make a posture to immediately raise their forelegs and accept defeats (obedience) by repeated load for 5 days to 10 days (chronic social defeat stress (SDS) load).
The social preference or avoidance test (SPAT) is a test that has received attention in recent years as a highly extrapolatable antidepressant drug screening system. SPAT evaluates the degree of interest in others (sociality). A box (which has a wired contact surface) is disposed in an open field. A time of contact with a target (time spent in an interaction zone) and a time spent in an avoidance zone are measured without the target (ICR mice) placed in the box in the first run and with the target (ICR mice) placed in the box in the second run. Time spent in the second run/Time spent in the first run is calculated (social interaction ratio). The social interaction ratio is decreased in chronic social defeat stress mice. Stress susceptibility differs among individuals, and susceptible individuals (social interaction ratio <1) and resilient individuals (social interaction ratio 1) are found.
(§1) Chronic social defeat stress was applied at 10 min/day for 10 days (Days 1 to 10) to male C57BL/6N mice (8 to 12 weeks old) each reared in isolation for 10 days or longer. On Day 11, the social preference or avoidance test (SPAT) was conducted, and susceptible mice were selected. A vehicle (10% DMSO solution; dissolved in saline; n=12) or PA-8 (30 mg/kg; n=9) was intraperitoneally administered once daily (0.1 mL/10 g) for 7 consecutive days from day 12. SPAT was conducted for 150 seconds 30 minutes after the final administration on the 7th day (Day 18). Mice reared for 10 days in a home cage without chronic social defeat stress load were used as a control (n=12). The results are shown in FIG. 15 (A: social interaction ratio, B: time spent in the interaction zone, C: time spent in the avoidance zone). The data was indicated by mean±standard error. *P<0.05 (One-way ANOVA followed by Tukey-Kramer test).
as §1, with “or PA-9” for “or PA-8”, “FIG. 17” for “FIG. 15”, “zone). […]” for “zone).”
Chronic social defeat stress was applied at 10 min/day for 10 days (Days 1 to 10) to male C57BL/6N mice (8 to 12 weeks old) each reared in isolation for 10 days or longer. On Day 11, the social preference or avoidance test (SPAT) was conducted, and susceptible mice were selected. On the next day (Day 12), a vehicle (10% DMSO solution; dissolved in saline; n=17) or PA-915 (30 mg/kg; n=17) was intraperitoneally administered (0.1 mL/10 g) to the mice. SPAT was conducted for 150 seconds 60 minutes later. Mice reared for 10 days in a home cage without chronic social defeat stress load were used as a control (n=22). The results are shown in FIG. 19 (A: social interaction ratio, B: time spent in the interaction zone, C: time spent in the avoidance zone). […] The data was indicated by mean±standard error. **P<0.01; *P<0.05 (One-way ANOVA followed by Tukey-Kramer test). […]

Row | Structure (SMILES) | sustained effect on social behavioral abnormality (social interaction ratio) | effect on social behavioral abnormality (social interaction ratio) | effect on chronic social defeat stress-induced social behavioral abnormality (SPAT)
1 | CNCCC(Oc1ccc(C(F)(F)F)cc1)c1ccccc1 (stereo not drawn) [fluoxetine] | neither the single-dose administration nor 14-day consecutive administration of fluoxetine improved social behavioral abnormality | neither the single-dose administration nor 14-day consecutive administration of fluoxetine improved social behavioral abnormality | 
2 | O=C(NCCc1c[nH]cn1)C1CC(=O)N(c2n[nH]c3ccccc23)C1 (stereo not drawn) [PA-9] |  |  | tended to improve social behavioral abnormality
3 | CNC1(c2ccccc2Cl)CCCCC1=O (stereo not drawn) [ketamine] | maintained its effectiveness 7, 14, and 28 days later | improved social behavioral abnormality | 
4 | C=CCOc1ccc(C2CC(=O)Nc3nc(N)[nH]c(=O)c32)cc1OC (stereo not drawn) [PA-8] |  |  | improving effect
